In patent US6380192B1, “Triazine compounds and method of use therefor” (Alteon, Inc., priority 1996, dated 2002):
pIC50: −log10 of the molar value. Where a name gives a salt, the structure may show the parent alone.

How the values were obtained:
[1] = system: N-acetyl glycyl-lysine methyl ester; assay: Inhibition of cross-linking of N-acetyl glycyl-lysine methyl ester in the presence of ribose (fluorescence); assay type: biochemical; details: 0.5 M sodium phosphate buffer pH 7.4, 37° C., 16-24 hours; read-out: IC50 inhibition of cross-linking of N-acetylglycyllysine methyl ester with ribose
From the text: The following method was used to evaluate the ability of the compounds of the present invention to inhibit the cross-linking of N-acetyl glycyl-lysine methyl ester in the presence of ribose.
N-acetylglycyllysine methyl ester (DP in formula below)
Ribose (R in formula below)
Test compounds (C in formula below)
0.5 M sodium phosphate buffer pH 7.4
N-acetylglycyllysine methyl ester in 0.5M sodium phosphate buffer, pH 7.4
Test compounds dissolved in the above buffer and the pH is adjusted to 7.4, if necessary
Reaction mixtures are prepared as follows:
and incubated at 37° C. for 16-24 hours. At the end of the incubation period reaction mixture is diluted with 3 ml distilled water and the fluorescence is read using an excitation wavelength of 350 nm and emission wavelength of […]. The inhibition of the cross-linking is calculated from the decrease in the fluorescence in the presence of the test compounds according to the formula:
Inhibition (%)=100×[DPRC fluorescence−RC fluorescence]/DPR fluorescence
The Inhibition by various test compounds (IC50) is as follows: […]

[2] = system: streptozotocin-diabetic rat; details: cited from earlier work
diabetic rats = details: cited from earlier work
red blood cells = details: in vivo; cited from earlier work
kidney = details: in vivo; cited from earlier work

pIC50 [1] | Compound | other results
3.08 | 2-methyl-[6′-(3′,4′-diamino-5(4H)-one-1,2,4-triazinyl)]hydrazide | 
< 2.00 | COc1cccc(C(=O)C=C2NN=C(N)N(N)C2=O)c1 [3,4-diamino-6-(3′-methoxyphenylcarbonylmethylene)-1,2,4-triazine-5(4H)-one] | 
2.80 | CCCCc1nnc(N)n(N)c1=O [3,4-diamino-6-butyl-1,2,4-triazine-5(4H)-one] | 
< 3.00 | Cl.NNc1nnc(Cc2ccc(O)cc2)c(=O)n1N [4-amino-3-hydrazino-6-(4′-hydroxybenzyl)-1,2,4-triazin-5(4H)-one hydrochloride] | melting point: 218 to 222 °C (dec.)
> 2.52 | Cc1nnc(NN)n(N)c1=O [4-amino-3-hydrazino-6-methyl-1,2,4-triazin-5(4H)-one hydrochloride] | 
 | N=C(N)NN [aminoguanidine] | Increased glomerular basement membrane thickness [2]: prevented; Aortic wall protein cross-linking (diabetic rats): diminishes aortic wall protein cross-linking; Diabetes-induced changes in the deformability of red blood cells (red blood cells): has been shown to prevent it in vivo; Immunoglobulin trapping in the kidney (kidney): reduction of immunoglobulin trapping in the kidney
